In patent US9963443B2, “Radiolabeled compounds” (TAKEDA PHARMACEUTICAL COMPANY LIMITED, priority 2014, dated 2018):

What was measured:
CH24H = CH24H (Macaca mulatta, UniProt I2CYF7); assay: PET measurements and image analysis after intravenous bolus of radiotracer; type: in vivo, rhesus macaque (macaca mulatta); conditions: for BPND in the putamen: Logan graphical analysis, cerebellum as reference region, t* 40 min
Experimental: Animals were fasted for 18-24 h before the study. At 2 h prior to injection of the radiopharmaceutical, the animals were anesthetized with intramuscular ketamine (10 mg/kg) and glycopyrrolate (0.01 mg/kg), transferred to the PET camera, and immediately intubated with an endrotracheal tube for continued anesthesia with 2.75% isoflurane administered through a rebreathing circuit. Body temperature was kept at 37° C. using a heated water blanket. Vital signs, including heart rate, blood pressure, respiration rate, oxygen saturation and body temperature, were monitored every 3 to 20 min during the study.
The dynamic series were subsequently reconstructed using filtered back projection with corrections for random, scatter, and attenuation provided by the camera manufacturer.
Four samples of 5 mL were drawn at 3, 10, 30 and 60 min post injection to evaluate the stability in blood as well as the metabolite analysis method and HPLC conditions.
Reconstructed PET image data volumes were transferred to the image processing PMOD software package (PMOD Technologies, Zurich, Switzerland) where the images were realigned with the monkey's individual MRI to apply a volume of interest (VOI) template comprising the following regions: whole brain, caudate nucleus, putamen, globus pallidus, frontal cortex, temporal cortex, occipital cortex, parietal cortex, anterior cingulate cortex, posterior cingulated cortex, hippocampus, thalamus, and cerebellum. Average activity concentration (kBq/cc) within each VOI was determined and time activity curves (TAC) were generated for each study, depicting the regional brain activity concentration over time and reflecting total uptake (specific plus non displaceable). Time activity curves were also expressed in SUV (Standard Uptake Value) units (g/mL) by normalizing by the weight of the animal and the injected dose. Logan graphical analysis with reference region input function was applied to the regional time activity curves with t* fixed at 40 min to obtain an estimate of BPND (Binding Potential relative to the Non-Displaceable compartment), where the cerebellum was used as the reference region.

human CH24H = human CH24H (Homo sapiens (Human), UniProt Q9Y6A2); assay: Measurement of CH24H inhibitory activity (24-HC produced from [14C]cholesterol by human CH24H lysate); type: biochemical; conditions: [14C]cholesterol 15 μM, 37° C. for 5 hr
Sequence of human CH24H (Q9Y6A2 whole entry): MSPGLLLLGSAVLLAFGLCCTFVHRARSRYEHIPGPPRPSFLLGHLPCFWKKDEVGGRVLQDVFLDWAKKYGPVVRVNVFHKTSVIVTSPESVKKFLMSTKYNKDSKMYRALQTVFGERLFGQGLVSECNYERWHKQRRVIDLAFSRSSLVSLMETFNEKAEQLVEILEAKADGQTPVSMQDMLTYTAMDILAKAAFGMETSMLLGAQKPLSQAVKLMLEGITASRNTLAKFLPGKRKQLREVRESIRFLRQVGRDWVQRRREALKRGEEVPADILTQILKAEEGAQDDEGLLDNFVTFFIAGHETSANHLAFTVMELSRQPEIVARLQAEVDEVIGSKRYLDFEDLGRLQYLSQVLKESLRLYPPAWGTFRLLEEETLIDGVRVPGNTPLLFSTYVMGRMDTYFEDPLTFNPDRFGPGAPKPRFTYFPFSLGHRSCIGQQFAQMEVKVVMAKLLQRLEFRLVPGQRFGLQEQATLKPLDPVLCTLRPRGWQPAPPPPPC
Experimental: The expression of human CH24H was performed using FreeStyle 293 Expression System (Invitrogen). […] After transfection, the cells were cultured at 37° C., 8% CO2 with shaking at 125 rpm for 2 days. The cells were collected by centrifugation, and suspended in a suspension buffer (100 mM potassium phosphate (pH 7.4), 0.1 mM EDTA, 1 mM DTT, 20% Glycerol). The suspended product was disrupted by a polytron homogenizer (manufactured by Kinematica), and centrifuged at 9000×g for 10 min, and the supernatant was collected. The collected supernatant was cryopreserved (−80° C.) as a human CH24H lysate standard product.
For the measurement of CH24H inhibitory activity, using the human CH24H lysate prepared in Experimental Example 2, the amount of 24-HC produced from cholesterol by catalytic activity of CH24H was measured in the presence of a test compound, and compared with that measured in the absence of the test compound. That is, a test compound solution at various concentrations was mixed with a reaction buffer (50 mM potassium phosphate containing 0.1% BSA and Complete, EDTA-free, pH 7.4) and human CH24H lysate. Then, [^14C] cholesterol (53 mCi/mmol specific activity, 15 μM) was added, and CH24H reaction was performed at 37° C. for 5 hr. After completion of the reaction, a quenching solution consisting of chloroform/methanol/distilled water (2:2:1 v/v) was added, and the resulting 24-HC was extracted by shaking. The extract was applied to silica gel thin layer chromatography (ethyl acetate:toluene=4:6), and the obtained ^14C-24HC fraction was measured with BAS2500 (Fujifilm Corporation).
The inhibitory rate (%) and IC50 values (μM) were calculated from the ratio of radioactivity in the presence of a test compound relative to the radioactivity in the absence of the test compound.

[1] = test system: other CNS related human receptors and enzymes; assay: Selectivity assay over other CNS related human receptors and enzymes (Eurofins Panlabs, Tables 3-1 and 3-2); type: binding; conditions: at 10 μM
Experimental: The CH24H IC50 is a measure of the ability of the test compound to inhibit the action of the CH24H enzyme. To determine the selectivity of the test compounds for CH24H, inhibitory activities of the compound were determined for other CNS (central nerve system) related receptors and enzymes such as Adenosine A2B, Adrenergic β1, Adrenergic β2, Adrenergic β3, Angiotensin AT2, Bradykinin B1, Cannabinoid CB1, Carbonic Anhydrase II, Acetyl Cholinesterase, Cyclooxygenase (COX-1), Cyclooxygenase (COX-2), Dopamine D1, Dopamine D2L, Dopamine D3, Dopamine D4.2, GABA B1A, GABA B1B, Histamine H1, Histamine H2, Imidazoline I2 (Central), MAO A, MAO B, Muscarinic M1, Muscarinic M2, Muscarinic M3, Opiate κ (OP2, KOP), Opiate μ (OP3; MOP), Metalloproteinase, Phosphodiesterase 4 (PDE4), Phosphodiesterase 5 (PDE5), 5-HT2B, NK2, NK3, Dopamine transporter, Norepinephrine transporter, Serotonin transporter (SERT), Vasopressin V1A. […] Such a result is indicative of the selectivity of the compounds in use as radiotracers for quantitative imaging of CH24H. In general, one of ordinary skill in the art would appreciate that a substance is considered to be effectively used for quantitative imaging of CH24H if it has an activity in inhibiting other CNS related receptors and enzymes with less than 50% at 10 μM. […]

Sequence of CH24H (I2CYF7 1-500): as the sequence (Q9Y6A2 whole entry) above, with V87I, G417S, A494T counted along it

Q: With `O=C(C1CCN(c2cncnc2-c2ccc(F)cc2)CC1)N1CC([18F])C1` [Example 2, (3-[^18F]fluoroazetidin-1-yl) (1-(4-(4-fluorophenyl)pyrimidin-5-yl)piperidin-4-yl)methanone] as the molecule, how does the “BPND in the putamen” value (CH24H) read?
A: 2.6

Q: What about the brain kinetics (CH24H; rhesus monkey, in vivo) of the same molecule?
A: favorable kinetics with a significant washout following the maximum uptake

Q: What about the “regional brain uptake (distribution)” value (CH24H; rhesus monkey, in vivo) of the same molecule?
A: highest uptake in the putamen and caudate

Q: And the “time of maximum SUV in the putamen” value (CH24H; rhesus monkey, in vivo, iv)?
A: ~30 min post injection

Q: What about the “whole-brain maximum % ID” value (CH24H; rhesus monkey, in vivo, iv) of the same molecule?
A: 2.3%

Q: With `CN(C(=O)C1CCN(c2cncnc2-c2ccc(F)cc2)CC1)C1CC1` [Reference Example 1, N-cyclopropyl-1-(4-(4-fluorophenyl)pyrimidin-5-yl)-N-methylpiperidine-4-carboxamide] as the molecule, how does the IC50 (human CH24H) read?
A: 5.4 nM

Q: How did the IC50 (human CH24H) turn out when `O=C(C1CCN(c2cncnc2-c2ccc(F)cc2)CC1)N1CC(F)C1` [Reference Example 2, (3-fluoroazetidin-1-yl) (1-(4-(4-fluorophenyl)pyrimidin-5-yl)piperidin-4-yl)methanone] was run?
A: 8.8 nM

Q: What about the “inhibition in the assays listed in Tables 3-1 and 3-2” value [1] of the same molecule?
A: less than 50%

Q: For `CN(C(=O)C1CCN(c2cnccc2-n2cc(Cl)cn2)CC1)C1CCOCC1` [Reference Example 3, 1-(4-(4-chloro-1H-pyrazol-1-yl)pyridin-3-yl)-N-methyl-N-(tetrahydro-2H-pyran-4-yl)piperidine-4-carboxamide], which IC50 (human CH24H) is on record?
A: 7.4 nM

Q: `Cc1cnn(-c2ccncc2N2CCC(C(=O)N3CC(F)C3)CC2)c1` [Reference Example 4, (3-fluoroazetidin-1-yl) (1-(4-(4-methyl-1H-pyrazol-1-yl)pyridin-3-yl)piperidin-4-yl)methanone] was tested. Which IC50 (human CH24H) did it give?
A: 7.1 nM

Q: With `O=C(C1CCN(c2cnccc2-n2cc(Cl)cn2)CC1)N1CC(F)C1` [Reference Example 5, (1-(4-(4-chloro-1H-pyrazol-1-yl)pyridin-3-yl)piperidin-4-yl) (3-fluoroazetidin-1-yl)methanone] as the molecule, how does the IC50 (human CH24H) read?
A: 19 nM

Q: How did the IC50 (human CH24H) turn out when `O=C(C1CCN(c2cncnc2-c2ccc(F)cc2)CC1)N1CC[C@H](F)C1` [Reference Example 10, (1-(4-(4-fluorophenyl)pyrimidin-5-yl)piperidin-4-yl) ((3S)-3-fluoropyrrolidin-1-yl)methanone] was run?
A: 20 nM

Q: Which IC50 (human CH24H) does the source give for `O=C(C1CCN(c2cncnc2-c2ccc(F)cc2)CC1)N1CC[C@@H](F)C1` [Reference Example 11, (1-(4-(4-fluorophenyl)pyrimidin-5-yl)piperidin-4-yl) ((3R)-3-fluoropyrrolidin-1-yl)methanone] here?
A: 16 nM

Q: Which IC50 (human CH24H) does the source give for `CN(C(=O)C1CCN(c2cnccc2-n2cc(Cl)cn2)CC1)[C@H]1CCOC1` [Reference Example 13, 1-(4-(4-chloro-1H-pyrazol-1-yl)pyridin-3-yl)-N-methyl-N-((3S)-tetrahydrofuran-3-yl)piperidine-4-carboxamide] here?
A: 20 nM

Q: How did the IC50 (human CH24H) turn out when `CN(C(=O)C1CCN(c2cnccc2-n2cc(Cl)cn2)CC1)[C@@H]1CCOC1` [Reference Example 14, 1-(4-(4-chloro-1H-pyrazol-1-yl)pyridin-3-yl)-N-methyl-N-((3R)-tetrahydrofuran-3-yl)piperidine-4-carboxamide] was run?
A: 17 nM

Q: Which IC50 (human CH24H) does the source give for `O=C(C1CCN(c2cnccc2-n2cc(Br)cn2)CC1)N1CC(F)C1` [Reference Example 20, (1-(4-(4-bromo-1H-pyrazol-1-yl)pyridin-3-yl)piperidin-4-yl) (3-fluoroazetidin-1-yl)methanone] here?
A: 6.9 nM

Q: With `Cc1cnc(-c2ccncc2N2CCC(C(=O)N3CC(F)C3)CC2)s1` [Reference Example 21, (3-fluoroazetidin-1-yl) (1-(4-(5-methyl-1,3-thiazol-2-yl)pyridin-3-yl)piperidin-4-yl)methanone] as the molecule, how does the IC50 (human CH24H) read?
A: 4.9 nM

Q: With `Cc1cnn(-c2ccncc2N2CCN(C(=O)N(CCF)Cc3ccc(F)cc3)CC2)c1` [Reference Example 23, N-(4-fluorobenzyl)-N-(2-fluoroethyl)-4-(4-(4-methyl-1H-pyrazol-1-yl)pyridin-3-yl)piperazine-1-carboxamide] as the molecule, how does the IC50 (human CH24H) read?
A: 17 nM

Q: Which IC50 (human CH24H) does the source give for `O=C(C1CCN(c2cnccc2-n2cc(C3CC3)cn2)CC1)N1CC(F)C1` [Reference Example 26, (1-(4-(4-cyclopropyl-1H-pyrazol-1-yl)pyridin-3-yl)piperidin-4-yl) (3-fluoroazetidin-1-yl)methanone] here?
A: 10 nM

Q: Which “BPND in the putamen” value (CH24H) does the source give for “(1-(4-(4-chloro-1H-pyrazol-1-yl)pyridin-3-yl)piperidin-4-yl) (3-[^18F]fluoroazetidin-1-yl)methanone [Example 1]” here?
A: 2.3

Q: What about the brain kinetics (CH24H; female rhesus macaque, PET time activity curves) of the same molecule?
A: favorable kinetics with a significant washout following the maximum uptake

Q: What about the “regional brain uptake (distribution)” value (CH24H; female rhesus macaque, PET time activity curves (FIG. 1, FIG. 2)) of the same molecule?
A: highest uptake in the putamen and caudate

Q: And the “whole-brain maximum % ID” value (CH24H; female rhesus macaque, i.v. bolus, PET)?
A: 1.6%
